Results as given in the CheMixHub viscosity set.
± gives the uncertainty stated by the source.

Assay: xn = mol fraction of the nth substance listed

O=CN1CCOCC1 + Cc1ccccc1
298.15 K, 101.3 kPa
Conditions	viscosity [mPa·s]
x2 = 0.01784	7.177 ± 0.049
x2 = 0.06829	6.102 ± 0.043
x2 = 0.1881	4.224 ± 0.032
x2 = 0.2675	3.336 ± 0.025
x2 = 0.3466	2.653 ± 0.021
x2 = 0.4247	2.155 ± 0.017
x2 = 0.5094	1.701 ± 0.014
x2 = 0.5956	1.359 ± 0.011
x2 = 0.6849	1.099 ± 0.009
x2 = 0.7722	0.879 ± 0.007
x2 = 0.8479	0.759 ± 0.007
x2 = 0.9178	0.646 ± 0.006

S=C=S + Cc1ccccc1
298.15 K, 101 kPa
Conditions	viscosity [mPa·s]
x1 = 0.1	0.5295 ± 0.0068
x1 = 0.2	0.5063 ± 0.0065
x1 = 0.3	0.4837 ± 0.0062
x1 = 0.4	0.462 ± 0.006
x1 = 0.5	0.4412 ± 0.0057
x1 = 0.6	0.4217 ± 0.0055
x1 = 0.7	0.4035 ± 0.0053
x1 = 0.8	0.3868 ± 0.0051
x1 = 0.9	0.3718 ± 0.0049
x2 = 0.06082	0.37 ± 0.005
x2 = 0.3361	0.417 ± 0.006
x2 = 0.587	0.469 ± 0.006

O=CN1CCOCC1 + Cc1ccccc1C
viscosity [mPa·s]
Conditions	298.15 K	303.15 K	313.15 K	323.15 K
101 kPa, x2 = 0.1	5.936 ± 0.12	5.18 ± 0.11	4.063 ± 0.09	3.294 ± 0.074
101 kPa, x2 = 0.2	4.582 ± 0.1	4.054 ± 0.09	3.243 ± 0.073	2.671 ± 0.06
101 kPa, x2 = 0.3	3.602 ± 0.08	3.231 ± 0.072	2.627 ± 0.06	2.194 ± 0.05
101 kPa, x2 = 0.4	2.87 ± 0.065	2.584 ± 0.059	2.142 ± 0.049	1.8 ± 0.042
101 kPa, x2 = 0.5	2.233 ± 0.051	2.034 ± 0.047	1.71 ± 0.04	1.467 ± 0.035
101 kPa, x2 = 0.6	1.744 ± 0.041	1.583 ± 0.037	1.347 ± 0.032	1.161 ± 0.028
101 kPa, x2 = 0.7	1.385 ± 0.033	1.271 ± 0.031	1.08 ± 0.026	0.9316 ± 0.023
101 kPa, x2 = 0.8	1.122 ± 0.027	1.034 ± 0.025	0.8894 ± 0.022	0.7789 ± 0.02
101 kPa, x2 = 0.9	0.9104 ± 0.023	0.8483 ± 0.022	0.7328 ± 0.019	0.6556 ± 0.017
101.3 kPa, x2 = 0.05737	6.316 ± 0.045	–	–	–
101.3 kPa, x2 = 0.1297	4.989 ± 0.037	–	–	–
101.3 kPa, x2 = 0.2312	3.617 ± 0.027	–	–	–
101.3 kPa, x2 = 0.5161	1.652 ± 0.013	–	–	–
101.3 kPa, x2 = 0.5998	1.343 ± 0.011	–	–	–
101.3 kPa, x2 = 0.6877	1.088 ± 0.009	–	–	–
101.3 kPa, x2 = 0.7767	0.908 ± 0.008	–	–	–
101.3 kPa, x2 = 0.9523	0.635 ± 0.006	–	–	–

S=C=S + ClC(Cl)(Cl)Cl
101 kPa
Conditions	viscosity [mPa·s]
293.15 K, x1 = 0.223	0.74 ± 0.02
293.15 K, x1 = 0.526	0.52 ± 0.01
293.15 K, x1 = 0.628	0.47 ± 0.01
293.15 K, x1 = 0.718	0.43 ± 0.01
293.15 K, x1 = 0.794	0.41 ± 0.01
293.15 K, x1 = 0.85	0.39 ± 0.01
293.15 K, x1 = 0.914	0.38 ± 0.01
298.15 K, x1 = 0.1	0.7919 ± 0.01
298.15 K, x1 = 0.2	0.7079 ± 0.009
298.15 K, x1 = 0.3	0.6441 ± 0.0082
298.15 K, x1 = 0.4	0.591 ± 0.0075
298.15 K, x1 = 0.5	0.5423 ± 0.0069
298.15 K, x1 = 0.6	0.4948 ± 0.0064
298.15 K, x1 = 0.7	0.4484 ± 0.0058
298.15 K, x1 = 0.8	0.4061 ± 0.0053
298.15 K, x1 = 0.9	0.3741 ± 0.0049
